Source: US20240166629A1, “HETEROCYCLIC COMPOUNDS CAPABLE OF ACTIVATING STING” (Boehringer Ingelheim International GmbH, priority 2022, published 2024)

How the values were obtained:
[1] = tested on: Human STING (hSTING, UNIPROT entry Q86WV6, residues 155-341); experiment: Interaction with hSTING by differential scanning fluorimetry (DSF); format: binding; details: 100 μM test compound, 5 μM hSTING protein
Method: In DSF, the temperature at which a protein unfolds, also called the melting temperature Tm, is measured by changes in fluorescence of a dye that binds to the hydrophobic parts of the protein. Tm shifts upon binding of a small molecule are correlated with the binding affinity of this small molecule. As target protein, Human STING (hSTING, UNIPROT entry Q86WV6, residues 155-341, MW: 21578.4 Da; protein stock solution: c=1302 μM stock solution in 20 mM Tris, 100 mM NaCl, 2 mM TCEP pH 8.8) was used, as assay buffer 20 mM Tris, 150 mM NaCl pH7.5 was added where and as necessary.
Final concentrations of components in assay: 100 μM test compounds, 5 μM target protein, “5×” SYPR Orange (from stock solution SYPRO orange solution in DMSO (invitrogen cat.-no. 56650-500ul), concentration “5000×”)
Assay Procedure: • 1) Dilutions of compound stock solutions (10 mM in DMSO) were prepared in assay buffer (20 mM Tris, 150 mM NaCl; pH7.5) • 2) 5 μl fluorescent dye stock solution (5000×SYPRO Orange in DMSO) was mixed with 19 μl target protein (1302 μM) and 976 μl assay buffer. • 3) 2 μl of this protein-dye-mixture (25×SYPRO Orange and 25 μM Protein) was added to 8 μl diluted compound solution as prepared in step 1. Final volume was 10 μl. • 4) With every 20 compounds, two negative controls were measured. • 5) The plates were prepared for duplicate measurement and centrifuged for 2 min at 1000 g. • 6) For the measurement, a CFX384 Real-Time System (Bio-Rad) was used. The run consisted of 140 cycles with 0.5° C./cycle (temperature ramp 15 s/cycle, 25° C. to 95° C.).
Data analysis: The melting curves were processed in Bio-Rad CFX Manager. Peak type was set to “negative”. Two replicates of TM (melting temperature) measurements were averaged and the standard deviation was calculated.

human STING variant HAQ = target: T1, human STING variant HAQ (Homo sapiens, UniProt Q86WV6, G230A/H232R/R293Q/R71H); experiment: THP1-Blue ISG IRF-inducible SEAP reporter assay, STING HAQ-variant; format: cell-based; details: THP1-Blue ISG cells expressing STING HAQ (parental or re-introduced); 24 hours incubation; SEAP OD 620 nm
T1 construct: expressed in transfected cells; host or cells: THP1-Blue ISG: either parental cells (endogenous HAQ) or hSTING KO clone retrovirally transduced with HAQ
T1 sequence (Q86WV6 whole entry R71H/G230A/H232R/R293Q): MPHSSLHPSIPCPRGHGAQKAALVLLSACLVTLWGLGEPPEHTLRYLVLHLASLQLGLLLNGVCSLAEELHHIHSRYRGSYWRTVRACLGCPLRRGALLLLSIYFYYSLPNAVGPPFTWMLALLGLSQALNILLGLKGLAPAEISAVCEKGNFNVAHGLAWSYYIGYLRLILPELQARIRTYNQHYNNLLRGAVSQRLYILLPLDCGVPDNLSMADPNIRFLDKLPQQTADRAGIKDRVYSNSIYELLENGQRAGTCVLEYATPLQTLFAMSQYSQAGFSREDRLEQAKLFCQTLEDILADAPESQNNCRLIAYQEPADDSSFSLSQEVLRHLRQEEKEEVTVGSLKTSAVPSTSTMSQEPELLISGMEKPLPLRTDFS
From the text: (§1) Activation of the STING protein expressed in cell lines results in an increase of interferon production. By the stable integration of an interferon regulatory factor (IRF)-inducible SEAP gene (secreted embryonic alkaline phosphatase) reporter construct the functional interferon signaling pathway can be monitored. Using Invivogen's THP1-Blue™ ISG colorimetric enzyme assay and a suitable optical density (OD) reader the activity of SEAP can be detected and quantified. This technique could be used to characterize pharmacological modification of the STING pathway.
(§2) Several single nucleotide polymorphisms have been identified in the human STING gene. To determine the activity of the above described compounds, THP1-Blue™ ISG reporter cell lines expressing the different human STING variants have been generated. To do so, the endogenous human STING was first deleted using the CRISPR/CAS9 system: THP1-Blue ISG cells were electroporated with ALL-IN-ONE CRISPR plasmids targeting the STING gene (purchased from Sigma encoding the gRNA and GFP as a reporter gene for successful transduction). GFP positive cells then were sorted 24 h post transfection and expanded. Cells were then dispersed in semisolid methocel medium to allow single cell clone isolations. Clones were then screened for cGAMP responsiveness using the Quanti-Blue™ reporter assay. Non-responsive clones were subsequently analysed for STING loss by western blotting and sequencing of the STING locus.
(§3) For the overexpression of the human STING variants, a confirmed THP1-Blue™ ISG hSTING KO clone was transduced with individual retroviral plasmids (MSCV-ires-GFP-Blasti) encoding the allelic variants of hSTING (WT (H232R), HAQ, R232H, AQ and R293Q). Transduced cells were sorted for different levels of GFP fluorescence and STING allele expression was analysed by western blot.
(§4) Measurements of SEAP activity were performed in THP1-Blue™ ISG cells stably expressing the different human STING isoforms and the IRF-inducible SEAP reporter construct. Cells were cultivated in RPMI1640 medium with 10% fetal calf serum, 50 μg/ml Penicillin-Streptomycin, 100 μg/ml Zeocin, and 100 μg/ml Normocin in a 37°, 95% humidity and 5% CO2 incubator.
(§5) In preparation for the assay, the cells were distributed into the assay plates with a density of 10000 cells/15 μL per well. Compounds were prepared by an 8 point serial dilution in 50% aqueous DMSO and a final dilution step into medium to ensure a final DMSO concentration of 0.5% in the assay. 5 μL of diluted compounds were added to the plates, followed by a 24 hours incubation at 37° C.
(§6) At the day of the assay, 75 μl per well of Quanti-Blue™ reagent was added to all wells of the plate and the plate was incubated another 30 minutes at 37° C. The OD at 620 nm was measured on the EnVision reader (PerkinElmer).
Data of EC50 values on STING HAQ-variant can be found in table 2a. Shown data below were either derived from the parental THP1-Blue™ ISG cell lines (which express endogenously HAQ) or from genetically engineered THP1-Blue™ ISG cell lines in which first STING has been knocked-out and the HAQ specific STING isoform has been re-introduced as described above.

[2] = target: T2, human STING variant H232R (WT) (Homo sapiens, UniProt Q86WV6, H232R); experiment: THP1-Blue ISG IRF-inducible SEAP reporter assay, STING H232R-variant; format: cell-based; details: THP1-Blue ISG hSTING KO cells expressing STING H232R; 24 hours incubation
T2 construct: expressed in transfected cells; host or cells: THP1-Blue ISG hSTING KO clone, retroviral MSCV-ires-GFP-Blasti
T2 sequence (Q86WV6 whole entry H232R): as the sequence (Q86WV6 whole entry R71H/G230A/H232R/R293Q) above, with H71R, A230G, Q293R counted along it
From the text: as §1, §2, §3, §4, §5, §6

[3] = target: T3, human STING variant R232H (Homo sapiens, UniProt Q86WV6); experiment: THP1-Blue ISG IRF-inducible SEAP reporter assay, STING R232H-variant; format: cell-based; details: THP1-Blue ISG hSTING KO cells expressing STING R232H; 24 hours incubation
T3 construct: expressed in transfected cells; host or cells: THP1-Blue ISG hSTING KO clone, retroviral MSCV-ires-GFP-Blasti
T3 sequence (Q86WV6 whole entry, stated change not applied): as the sequence (Q86WV6 whole entry R71H/G230A/H232R/R293Q) above, with H71R, A230G, R232H, Q293R counted along it
From the text: as §1, §2, §3, §4, §5, §6

[4] = target: T4, human STING variant R293Q (Homo sapiens, UniProt Q86WV6, H232R/R293Q); experiment: THP1-Blue ISG IRF-inducible SEAP reporter assay, STING R293Q-variant; format: cell-based; details: THP1-Blue ISG hSTING KO cells expressing STING R293Q; 24 hours incubation
T4 construct: expressed in transfected cells; host or cells: THP1-Blue ISG hSTING KO clone, retroviral MSCV-ires-GFP-Blasti
T4 sequence (Q86WV6 whole entry H232R/R293Q): as the sequence (Q86WV6 whole entry R71H/G230A/H232R/R293Q) above, with H71R, A230G counted along it
From the text: as §1, §2, §3, §4, §5, §6

human STING variant AQ = target: T5, human STING variant AQ (Homo sapiens, UniProt Q86WV6, G230A/H232R/R293Q); experiment: THP1-Blue ISG IRF-inducible SEAP reporter assay, STING AQ-variant; format: cell-based; details: THP1-Blue ISG hSTING KO cells expressing STING AQ; 24 hours incubation
T5 construct: expressed in transfected cells; host or cells: THP1-Blue ISG hSTING KO clone, retroviral MSCV-ires-GFP-Blasti
T5 sequence (Q86WV6 whole entry G230A/H232R/R293Q): as the sequence (Q86WV6 whole entry R71H/G230A/H232R/R293Q) above, with H71R counted along it
From the text: as §1, §2, §3, §4, §5, §6

in vitro = details: human, Caco-2, pH 7.4
Method: Caco-2 cells were obtained from Leibniz Institute DSMZ-German Collection of Microorganisms and Cell Cultures (Braunschweig, Germany) and cultured in DMEM (Dulbecco's modified Eagle medium) containing (in final concentrations) 10% FCS (fetal calf serum), 1% NEAA (non-essential amino acids), 2 mM Glutamin, 100 U/mL Penicillin and 100 μg/mL Streptomycin. Caco-2 cells were seeded either onto 24-well Transwell inserts (Corning, #3379) for bidirectional permeability assays at a density of 160,000 cells/cm^2 and cultured for 3 weeks, with media change on every second day.
For bidirectional permeability assays 10 mM DMSO stock solutions were diluted in transport buffer (final concentrations: 128.13 mM NaCl, 5.36 mM KCl, 1 mM MgSO4, 1.8 mM CaCl2, 4.17 mM NaHCO3, 1.19 mM Na2HPO4, 0.41 mM NaH2PO4, 15 mM 2-[4-(2-hydroxyethyl)piperazin-1-yl]ethanesulfonic acid (HEPES), 20 mM glucose, pH 7.4) containing 0.25% bovine serum albumin to a final concentration of 10 μM of the test compounds and added to the apical or basal compartment. Cells were incubated with the compounds for up to 2 h. Samples from the opposite compartment were taken at different timepoints.
Compound concentrations in the compartments were quantified using a RapidFire-based high-throughput HPLC/MS/MS system (high performance liquid chromatography/mass spectrometry; BioCius) that was customized to a fully automated and flexible platform, termed RIAS. In this modified setup, the sample was aspirated by a vacuum pump into a 10 μL sample loop for 250 ms and flushed onto a C4 cartridge (3.8 μL bed volume; BioCius) with the aqueous mobile phase (99.9% water, 0.09% formic acid, and 0.01% TFA; flow rate 1.5 mL/min). Prior to bioanalysis samples were spiked with internal standard solution and diluted with acetonitrile (ACN) for protein precipitation. Measurement was operated in multiplereaction monitoring (MRM) mode. Quantification was performed using external calibration. A solid-phase extraction step retained the analyte for 3000 ms while interfering matrix (e.g., buffer components) was removed. With a simple step gradient, the analyte was back-eluted from the cartridge for 3,000 ms with the organic mobile phase (99.9% acetonitrile/methanol [1:1, v:v], 0.09% formic acid, and 0.01% TFA) and flushed into the mass spectrometer at a flow rate of 1.25 mL/min. Afterwards, the cartridge was reequilibrated with the aqueous mobile phase for 500 ms (flow rate 1.5 mL/min). The RapidFire software and a customized control software were obtained from BioCius. QuickQuan 2.3, Xcalibur 2.0.7, and XDK 2.1.0.25 were used to operate the TSQ Vantage mass spectrometer (ThermoFisher, San Jose, CA) integrated to the RapidFire system. Mass spectral data-processing software QuickCalc 7.1.9 was purchased from ThermoFisher. The Master software for the RIAS was programmed in-house using LabVIEW (version 8.6.1; National Instruments, Austin, TX). Data analysis was performed in AssayExplorer 3.2 (Symyx, Sunnyvale, CA), and correlation plots were visualized in Spotfire version 2.2.0 (TIBCO, Palo Alto, CA).
Apparent permeability coefficients in the apical to basal direction (Papp,AB) and in the basal to apical direction (Papp,BA) and efflux ratios were calculated as follows:
Efflux ratio=Papp,BA/Papp,AB
where Q is the amount of compound recovered in the receiver compartment after the incubation time t, C0 the initial compound concentration given to the donor compartment, and s the surface area of the Transwell inserts. […] In addition, transepithelial electrical resistance (TEER) values are measured for each plate before the permeability assay, and total recovery in donor and receiver compartments was determined for each compound.

Which “TM (changes in TM, thermal shift)” value [1] does the source give for `Cc1cc(F)cc2c(-c3cccc4nn(C)cc34)nn(-c3ccc(N4CCS(=O)(=O)CC4)nc3)c12` [Example #1, 4-(5-(5-fluoro-2′,7-dimethyl-1H,2′H-[3,4′-biindazol]-1-yl)pyridin-2-yl)thiomorpholine 1,1-dioxide] here?
Its value is 21 K.

And the EC50 (human STING variant HAQ)?
Its EC50 is 2300 nM.

What about the EC50 [2] of the same compound?
Its EC50 is 800 nM.

What about the EC50 [3] of the same compound?
The EC50 was 700 nM.

And the EC50 [4]?
Its EC50 is 2200 nM.

And the EC50 (human STING variant AQ)?
Its EC50 is 1800 nM.

Which “TM (changes in TM, thermal shift)” value [1] does the source give for `Cc1cc(F)cc2c(-c3cccc4nn(C)cc34)nn(-c3ccc(N4CCN(C=O)CC4)nc3)c12` [Example #3, 4-(5-(5-Fluoro-2′,7-dimethyl-1H,2′H-[3,4′-biindazol]-1-yl)pyridin-2-yl)piperazine-1-carbaldehyde] here?
Its value is 21 K.

And the EC50 (human STING variant HAQ)?
The EC50 was 1900 nM.

What about the EC50 [2] of the same compound?
The EC50 was 600 nM.

What about the EC50 [3] of the same compound?
Its EC50 is 600 nM.

And the EC50 [4]?
Its EC50 is 1800 nM.

And the EC50 (human STING variant AQ)?
Its EC50 is 1000 nM.

And the Papp A→B at 10 μM (in vitro)?
The Papp A→B at 10 μM was 15 ×10⁻⁶ cm/s.

And the efflux ratio at 10 μM (in vitro)?
The efflux ratio at 10 μM was 1.7.

What does the source list for `Cc1c(Cl)ccc2c(-c3cccc4nn(C)cc34)nn(-c3ccc(N4CCC(S(C)(=O)=O)CC4)nc3)c12` [compound 2, 6-chloro-2′,7-dimethyl-1-(6-(4-(methylsulfonyl)piperidin-1-yl)pyridin-3-yl)-1H,2′H-3,4′-biindazole]?
TM (changes in TM, thermal shift) [1]: 22 K; EC50 (human STING variant HAQ): 900 nM; EC50 [2]: 300 nM; EC50 [3]: 300 nM; EC50 [4]: 700 nM; EC50 (human STING variant AQ): 600 nM

For `Cc1cc(F)cc2c(-c3cccc4nn(C)cc34)nn(-c3ccc(N4CCC(C(=O)O)CC4)nc3)c12` [compound 4, 1-(5-(5-Fluoro-2′,7-dimethyl-1H,2′H-[3,4′-biindazol]-1-yl)pyridin-2-yl)piperidine-4-carboxylic acid], which “TM (changes in TM, thermal shift)” value [1] is on record?
The value was 24 K.

What about the EC50 (human STING variant HAQ) of the same compound?
Its EC50 is 700 nM.

And the EC50 [2]?
Its EC50 is 300 nM.

And the EC50 [3]?
The EC50 was 300 nM.

What about the EC50 [4] of the same compound?
Its EC50 is 500 nM.

What about the EC50 (human STING variant AQ) of the same compound?
The EC50 was 300 nM.

And the Papp A→B at 10 μM (in vitro)?
The Papp A→B at 10 μM was 19 ×10⁻⁶ cm/s.

What about the efflux ratio at 10 μM (in vitro) of the same compound?
Its efflux ratio at 10 μM is 1.

What does the source list for `Cc1cc(F)cc2c(-c3cccc4nn(C)cc34)nn(-c3ccc(N4C[C@@H]5[C@H](C4)[C@H]5C(=O)O)nc3)c12` [compound 5, (1R,5S,6r)-3-(5-(5-fluoro-2′,7-dimethyl-1H,2′H-[3,4′-biindazol]-1-yl)pyridin-2-yl)-3-azabicyclo[3.1.0]hexane-6-carboxylic acid]?
TM (changes in TM, thermal shift) [1]: 26 K; EC50 (human STING variant HAQ): 600 nM; EC50 [2]: 600 nM; EC50 [3]: 300 nM; EC50 [4]: 600 nM; EC50 (human STING variant AQ): 400 nM; Papp A→B at 10 μM (in vitro): 8 ×10⁻⁶ cm/s; efflux ratio at 10 μM (in vitro): 2.6

Which results are given for `Cc1c(F)ccc2c(-c3cccc4nn(C)cc34)nn(-c3ccc(N4C[C@@H]5[C@H](C4)[C@H]5C(=O)O)nc3)c12` [compound 6, (1R,5S,6r)-3-(5-(6-fluoro-2′,7-dimethyl-1H,2′H-[3,4′-biindazol]-1-yl)pyridin-2-yl)-3-azabicyclo[3.1.0]hexane-6-carboxylic acid]?
EC50 (human STING variant HAQ): 300 nM; EC50 [2]: 200 nM; Papp A→B at 10 μM (in vitro): 9 ×10⁻⁶ cm/s; efflux ratio at 10 μM (in vitro): 2.4
